According to the kinase profiling compilation of Christmann-Franck et al. (2016):

Legend:
Experiment in all cases: radiometric filter-binding kinase assay, Kinase HotSpot
Conditions in all cases: compound 0.5 µM; ATP 10 µM
NEK2 (human) = NEK2 (human) (UniProt P51955)
CHEK2 (human) = CHEK2 (human) (UniProt O96017)
PRKCB2 (human) = PRKCB2 (human) (UniProt P05771)
BMX (human) = BMX (human) (UniProt P51813)
MYO3B (human) = MYO3B (human) (UniProt Q8WXR4)
CSNK1G2 (human) = CSNK1G2 (human) (UniProt P78368)
MAP3K14 (human) = MAP3K14 (human) (UniProt Q99558)
ADRBK1 (human) = ADRBK1 (human) (UniProt P25098)
DYRK3 (human) = DYRK3 (human) (UniProt O43781)
GRK7 (human) = GRK7 (human) (UniProt Q8WTQ7)
FRK (human) = FRK (human) (UniProt P42685)
VRK1 (human) = VRK1 (human) (UniProt Q99986)
TXK (human) = TXK (human) (UniProt P42681)
TXK (human), sequence (P42681 whole entry, looked up): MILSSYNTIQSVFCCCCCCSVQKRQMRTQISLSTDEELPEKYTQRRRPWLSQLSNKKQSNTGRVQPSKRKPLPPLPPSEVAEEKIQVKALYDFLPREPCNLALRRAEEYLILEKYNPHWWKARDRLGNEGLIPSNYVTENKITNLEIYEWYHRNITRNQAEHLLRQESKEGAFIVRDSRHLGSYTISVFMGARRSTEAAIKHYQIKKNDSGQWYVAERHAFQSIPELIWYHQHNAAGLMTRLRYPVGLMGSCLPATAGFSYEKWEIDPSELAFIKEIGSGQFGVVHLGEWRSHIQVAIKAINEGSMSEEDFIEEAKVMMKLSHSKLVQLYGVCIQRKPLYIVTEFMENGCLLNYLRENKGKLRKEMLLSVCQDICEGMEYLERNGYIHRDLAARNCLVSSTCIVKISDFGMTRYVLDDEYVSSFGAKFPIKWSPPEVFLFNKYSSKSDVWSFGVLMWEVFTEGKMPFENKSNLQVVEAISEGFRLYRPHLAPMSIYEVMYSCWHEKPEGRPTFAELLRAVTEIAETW

CAMKK1 (human) = CAMKK1 (human) (UniProt Q8N5S9)
MAP4K2 (human) = MAP4K2 (human) (UniProt Q12851)
BTK (human) = BTK (human) (UniProt Q06187)
SRPK2 (human) = SRPK2 (human) (UniProt P78362)
PRKX (human) = PRKX (human) (UniProt P51817)
LTK (human) = LTK (human) (UniProt P29376)
STK33 (human) = STK33 (human) (UniProt Q9BYT3)
INSRR (human) = INSRR (human) (UniProt P14616)
INSRR (human), sequence (P14616 whole entry, looked up): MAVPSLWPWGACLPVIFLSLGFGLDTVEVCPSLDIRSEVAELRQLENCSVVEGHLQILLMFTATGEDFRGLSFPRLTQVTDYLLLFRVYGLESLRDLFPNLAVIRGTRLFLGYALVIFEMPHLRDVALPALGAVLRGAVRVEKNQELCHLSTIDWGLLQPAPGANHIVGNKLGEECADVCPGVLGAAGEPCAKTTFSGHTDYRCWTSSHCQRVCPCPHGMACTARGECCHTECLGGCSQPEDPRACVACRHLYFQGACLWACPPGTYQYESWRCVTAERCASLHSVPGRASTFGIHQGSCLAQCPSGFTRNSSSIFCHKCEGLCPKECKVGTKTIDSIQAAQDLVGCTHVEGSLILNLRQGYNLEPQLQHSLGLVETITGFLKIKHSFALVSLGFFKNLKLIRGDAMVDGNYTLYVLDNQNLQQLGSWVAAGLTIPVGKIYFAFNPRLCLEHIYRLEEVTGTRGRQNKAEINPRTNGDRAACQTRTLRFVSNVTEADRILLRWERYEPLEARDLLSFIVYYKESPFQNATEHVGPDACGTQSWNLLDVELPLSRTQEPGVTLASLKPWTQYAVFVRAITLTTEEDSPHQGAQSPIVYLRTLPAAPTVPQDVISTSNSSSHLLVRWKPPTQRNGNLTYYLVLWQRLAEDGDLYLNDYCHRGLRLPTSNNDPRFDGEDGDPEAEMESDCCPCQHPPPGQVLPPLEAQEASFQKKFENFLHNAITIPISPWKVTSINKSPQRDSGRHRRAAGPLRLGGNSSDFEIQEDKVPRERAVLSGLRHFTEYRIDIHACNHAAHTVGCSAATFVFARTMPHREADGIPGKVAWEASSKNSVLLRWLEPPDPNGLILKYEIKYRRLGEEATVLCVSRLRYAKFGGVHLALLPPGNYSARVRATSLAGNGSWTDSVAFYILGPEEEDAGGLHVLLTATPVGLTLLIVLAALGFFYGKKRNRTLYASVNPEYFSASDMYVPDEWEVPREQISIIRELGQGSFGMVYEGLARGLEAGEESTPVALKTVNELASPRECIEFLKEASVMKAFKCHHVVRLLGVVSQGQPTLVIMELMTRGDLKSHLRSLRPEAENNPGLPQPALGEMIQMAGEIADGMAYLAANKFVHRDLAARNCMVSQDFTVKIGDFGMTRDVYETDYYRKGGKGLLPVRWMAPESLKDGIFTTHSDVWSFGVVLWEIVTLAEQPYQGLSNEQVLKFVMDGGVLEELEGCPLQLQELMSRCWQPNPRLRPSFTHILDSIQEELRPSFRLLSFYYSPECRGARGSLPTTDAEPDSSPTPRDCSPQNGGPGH

EGFR (human) = EGFR (human) (UniProt P00533)
MAP2K1 (human) = MAP2K1 (human) (UniProt Q02750)
MAP2K1 (human), sequence (Q02750 whole entry, looked up): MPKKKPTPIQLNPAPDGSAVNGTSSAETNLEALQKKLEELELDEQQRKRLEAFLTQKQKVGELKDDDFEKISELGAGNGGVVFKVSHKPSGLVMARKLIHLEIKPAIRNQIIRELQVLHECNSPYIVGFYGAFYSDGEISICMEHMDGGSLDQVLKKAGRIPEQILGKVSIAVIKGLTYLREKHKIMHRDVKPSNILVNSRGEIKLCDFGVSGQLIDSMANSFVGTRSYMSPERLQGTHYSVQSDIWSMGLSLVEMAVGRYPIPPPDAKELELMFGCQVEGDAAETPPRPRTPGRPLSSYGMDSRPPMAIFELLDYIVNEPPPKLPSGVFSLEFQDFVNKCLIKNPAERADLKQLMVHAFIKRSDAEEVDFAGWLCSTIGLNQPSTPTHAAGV

CDK1 CCNB1 (human) = CDK1 CCNB1 (human) (UniProt P06493+P14635)
PHKG1 (human) = PHKG1 (human) (UniProt Q16816)
DYRK4 (human) = DYRK4 (human) (UniProt Q9NR20)
MARK2 (human) = MARK2 (human) (UniProt Q7KZI7)
SRPK3 (human) = SRPK3 (human) (UniProt Q9UPE1)
BRSK1 (human) = BRSK1 (human) (UniProt Q8TDC3)
PRKACG (human) = PRKACG (human) (UniProt P22612)
AXL (human) = AXL (human) (UniProt P30530)
STK39 (human) = STK39 (human) (UniProt Q9UEW8)
MAP3K5 (human) = MAP3K5 (human) (UniProt Q99683)
TEK (human) = TEK (human) (UniProt Q02763)
TEK (human), sequence (Q02763 whole entry, looked up): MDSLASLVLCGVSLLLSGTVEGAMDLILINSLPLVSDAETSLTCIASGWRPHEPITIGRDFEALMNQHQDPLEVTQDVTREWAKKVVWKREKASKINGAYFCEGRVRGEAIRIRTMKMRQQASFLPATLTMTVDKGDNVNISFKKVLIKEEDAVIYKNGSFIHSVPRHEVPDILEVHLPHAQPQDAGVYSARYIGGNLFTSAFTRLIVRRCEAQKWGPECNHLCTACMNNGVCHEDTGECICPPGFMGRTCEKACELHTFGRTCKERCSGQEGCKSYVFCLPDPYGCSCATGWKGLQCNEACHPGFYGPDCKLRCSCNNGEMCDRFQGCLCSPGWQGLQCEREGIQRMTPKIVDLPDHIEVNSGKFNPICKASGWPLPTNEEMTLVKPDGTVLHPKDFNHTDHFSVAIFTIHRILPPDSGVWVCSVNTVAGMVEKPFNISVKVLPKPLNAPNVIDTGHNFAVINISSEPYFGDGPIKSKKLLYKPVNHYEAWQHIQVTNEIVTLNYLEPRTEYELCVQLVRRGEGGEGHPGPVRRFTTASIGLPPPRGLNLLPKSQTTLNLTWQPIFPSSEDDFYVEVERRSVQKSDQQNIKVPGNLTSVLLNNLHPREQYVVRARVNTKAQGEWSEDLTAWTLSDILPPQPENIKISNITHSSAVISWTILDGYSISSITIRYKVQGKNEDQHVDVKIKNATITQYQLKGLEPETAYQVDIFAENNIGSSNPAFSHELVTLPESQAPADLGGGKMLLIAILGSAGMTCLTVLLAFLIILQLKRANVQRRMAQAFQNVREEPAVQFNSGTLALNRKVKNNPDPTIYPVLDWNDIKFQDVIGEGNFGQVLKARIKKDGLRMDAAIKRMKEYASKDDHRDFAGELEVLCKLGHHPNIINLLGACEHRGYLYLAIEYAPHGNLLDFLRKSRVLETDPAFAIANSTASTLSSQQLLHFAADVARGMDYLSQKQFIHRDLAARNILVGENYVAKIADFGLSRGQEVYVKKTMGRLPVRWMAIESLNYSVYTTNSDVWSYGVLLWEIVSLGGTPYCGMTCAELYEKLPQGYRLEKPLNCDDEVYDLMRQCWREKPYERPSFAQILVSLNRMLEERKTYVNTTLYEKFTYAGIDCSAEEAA

PRKCZ (human) = PRKCZ (human) (UniProt Q05513)
PRKCZ (human), sequence (Q05513 whole entry, looked up): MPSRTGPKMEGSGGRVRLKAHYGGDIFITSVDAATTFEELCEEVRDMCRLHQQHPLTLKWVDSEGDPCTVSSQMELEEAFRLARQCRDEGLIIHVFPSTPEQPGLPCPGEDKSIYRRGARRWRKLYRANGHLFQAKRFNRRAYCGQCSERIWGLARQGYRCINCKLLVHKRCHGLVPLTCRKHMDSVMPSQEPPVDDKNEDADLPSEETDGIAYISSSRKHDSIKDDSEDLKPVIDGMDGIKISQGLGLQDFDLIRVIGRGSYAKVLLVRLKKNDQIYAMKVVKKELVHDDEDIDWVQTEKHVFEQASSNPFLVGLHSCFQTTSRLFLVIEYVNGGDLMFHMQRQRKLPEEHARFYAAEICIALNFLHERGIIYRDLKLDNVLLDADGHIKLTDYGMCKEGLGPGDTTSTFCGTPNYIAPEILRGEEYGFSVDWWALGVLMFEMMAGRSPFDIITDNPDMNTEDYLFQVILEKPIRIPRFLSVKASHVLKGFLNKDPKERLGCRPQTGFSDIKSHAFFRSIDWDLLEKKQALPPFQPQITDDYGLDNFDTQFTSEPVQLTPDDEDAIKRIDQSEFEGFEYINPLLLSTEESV

EPHA7 (human) = EPHA7 (human) (UniProt Q15375)
GRK5 (human) = GRK5 (human) (UniProt P34947)
GRK5 (human), sequence (P34947 whole entry, looked up): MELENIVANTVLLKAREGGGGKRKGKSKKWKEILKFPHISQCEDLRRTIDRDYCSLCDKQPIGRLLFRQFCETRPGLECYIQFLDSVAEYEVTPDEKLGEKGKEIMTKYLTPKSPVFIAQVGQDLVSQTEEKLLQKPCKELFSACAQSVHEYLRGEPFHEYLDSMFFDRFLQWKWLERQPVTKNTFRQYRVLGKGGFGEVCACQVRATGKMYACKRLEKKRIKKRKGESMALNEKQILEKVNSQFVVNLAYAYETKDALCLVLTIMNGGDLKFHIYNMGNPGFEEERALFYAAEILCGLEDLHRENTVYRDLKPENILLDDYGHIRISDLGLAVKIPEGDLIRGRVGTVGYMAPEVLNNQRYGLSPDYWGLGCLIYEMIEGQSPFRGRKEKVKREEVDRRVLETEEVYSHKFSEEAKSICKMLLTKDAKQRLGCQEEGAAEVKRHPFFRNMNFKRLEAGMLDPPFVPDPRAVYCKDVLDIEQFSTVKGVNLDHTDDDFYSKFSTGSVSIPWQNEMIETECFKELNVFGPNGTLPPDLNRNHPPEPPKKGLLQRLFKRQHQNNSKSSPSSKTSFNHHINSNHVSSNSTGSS

DYRK2 (human) = DYRK2 (human) (UniProt Q92630)
EPHA1 (human) = EPHA1 (human) (UniProt P21709)
DAPK3 (human) = DAPK3 (human) (UniProt O43293)
DDR2 (human) = DDR2 (human) (UniProt Q16832)
PRKCD (human) = PRKCD (human) (UniProt Q05655)

NEK2 (human), sequence (P51955 whole entry, looked up): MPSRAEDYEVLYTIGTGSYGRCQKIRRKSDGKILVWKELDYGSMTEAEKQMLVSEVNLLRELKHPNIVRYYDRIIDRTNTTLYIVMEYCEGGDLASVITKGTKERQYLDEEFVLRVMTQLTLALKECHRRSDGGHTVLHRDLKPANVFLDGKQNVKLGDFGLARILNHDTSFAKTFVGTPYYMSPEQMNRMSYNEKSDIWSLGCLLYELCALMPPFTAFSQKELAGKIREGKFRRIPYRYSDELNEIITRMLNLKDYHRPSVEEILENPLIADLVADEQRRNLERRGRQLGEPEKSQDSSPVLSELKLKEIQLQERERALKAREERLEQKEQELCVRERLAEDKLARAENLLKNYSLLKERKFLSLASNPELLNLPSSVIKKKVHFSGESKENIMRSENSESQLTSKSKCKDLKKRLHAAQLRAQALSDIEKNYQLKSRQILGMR

CC(C)N(CCC(=O)c1ccc2ccccc2c1)Cc1ccccc1
residual activity (NEK2 (human)): 86.9% | residual activity (CHEK2 (human)): 87.5% | residual activity (PRKCB2 (human)): 101% | residual activity (BMX (human)): 102% | residual activity (MYO3B (human)): 93.5% | residual activity (CSNK1G2 (human)): 104% | residual activity (MAP3K14 (human)): 117% | residual activity (ADRBK1 (human)): 106% | residual activity (DYRK3 (human)): 107% | residual activity (GRK7 (human)): 121% | residual activity (FRK (human)): 95.8% | residual activity (VRK1 (human)): 95.8% | residual activity (TXK (human)): 97.1% | residual activity (CAMKK1 (human)): 104% | residual activity (MAP4K2 (human)): 98.3% | residual activity (BTK (human)): 87.5% | residual activity (SRPK2 (human)): 99.1% | residual activity (PRKX (human)): 99.6% | residual activity (LTK (human)): 103% | residual activity (STK33 (human)): 104% | residual activity (INSRR (human)): 90.1% | residual activity (EGFR (human)): 99.4% | residual activity (MAP2K1 (human)): 82.5% | residual activity (CDK1 CCNB1 (human)): 104% | residual activity (PHKG1 (human)): 91.6% | residual activity (DYRK4 (human)): 88.5% | residual activity (MARK2 (human)): 97.9% | residual activity (SRPK3 (human)): 96.5% | residual activity (BRSK1 (human)): 98% | residual activity (PRKACG (human)): 107% | residual activity (AXL (human)): 108% | residual activity (STK39 (human)): 88.3% | residual activity (MAP3K5 (human)): 103% | residual activity (TEK (human)): 96.3% | residual activity (PRKCZ (human)): 100% | residual activity (EPHA7 (human)): 106% | residual activity (GRK5 (human)): 93.7% | residual activity (DYRK2 (human)): 118% | residual activity (EPHA1 (human)): 92.4% | residual activity (DAPK3 (human)): 107% | residual activity (DDR2 (human)): 92.5% | residual activity (PRKCD (human)): 94%

Cc1ccc(Nc2nccc(N(C)c3ccc4c(C)n(C)nc4c3)n2)cc1S(N)(=O)=O
residual activity (NEK2 (human)): 110% | residual activity (CHEK2 (human)): 95.1% | residual activity (PRKCB2 (human)): 96.7% | residual activity (BMX (human)): 93.4% | residual activity (MYO3B (human)): 83.4% | residual activity (CSNK1G2 (human)): 96.9% | residual activity (MAP3K14 (human)): 104% | residual activity (ADRBK1 (human)): 90.3% | residual activity (DYRK3 (human)): 95.9% | residual activity (GRK7 (human)): 96.5% | residual activity (FRK (human)): 58.1% | residual activity (VRK1 (human)): 100% | residual activity (TXK (human)): 40.2% | residual activity (CAMKK1 (human)): 72% | residual activity (MAP4K2 (human)): 72.5% | residual activity (BTK (human)): 78.8% | residual activity (SRPK2 (human)): 104% | residual activity (PRKX (human)): 101% | residual activity (LTK (human)): 80.2% | residual activity (STK33 (human)): 87.1% | residual activity (INSRR (human)): 96.1% | residual activity (EGFR (human)): 91% | residual activity (MAP2K1 (human)): 106% | residual activity (CDK1 CCNB1 (human)): 99.6% | residual activity (PHKG1 (human)): 92.5% | residual activity (DYRK4 (human)): 106% | residual activity (MARK2 (human)): 111% | residual activity (SRPK3 (human)): 102% | residual activity (BRSK1 (human)): 97.2% | residual activity (PRKACG (human)): 111% | residual activity (AXL (human)): 78.1% | residual activity (STK39 (human)): 95.9% | residual activity (MAP3K5 (human)): 102% | residual activity (TEK (human)): 69.3% | residual activity (PRKCZ (human)): 97.7% | residual activity (EPHA7 (human)): 94.1% | residual activity (GRK5 (human)): 99.6% | residual activity (DYRK2 (human)): 98.8% | residual activity (EPHA1 (human)): 85% | residual activity (DAPK3 (human)): 92.3% | residual activity (DDR2 (human)): 36.2% | residual activity (PRKCD (human)): 106%

CCCC(=O)Oc1ccc2[nH]c(C(=O)c3cc4ccccc4[nH]3)cc2c1
residual activity (NEK2 (human)): 86.8% | residual activity (CHEK2 (human)): 99% | residual activity (PRKCB2 (human)): 102% | residual activity (BMX (human)): 97.4% | residual activity (MYO3B (human)): 98.6% | residual activity (CSNK1G2 (human)): 95.5% | residual activity (MAP3K14 (human)): 109% | residual activity (ADRBK1 (human)): 101% | residual activity (DYRK3 (human)): 92.6% | residual activity (GRK7 (human)): 105% | residual activity (FRK (human)): 98.2% | residual activity (VRK1 (human)): 85.9% | residual activity (TXK (human)): 99.1% | residual activity (CAMKK1 (human)): 106% | residual activity (MAP4K2 (human)): 95.3% | residual activity (BTK (human)): 88.2% | residual activity (SRPK2 (human)): 89.4% | residual activity (PRKX (human)): 96.1% | residual activity (LTK (human)): 87.5% | residual activity (STK33 (human)): 92.9% | residual activity (INSRR (human)): 97.9% | residual activity (EGFR (human)): 95.2% | residual activity (MAP2K1 (human)): 99.9% | residual activity (CDK1 CCNB1 (human)): 106% | residual activity (PHKG1 (human)): 93.7% | residual activity (DYRK4 (human)): 86% | residual activity (MARK2 (human)): 83.1% | residual activity (SRPK3 (human)): 93.2% | residual activity (BRSK1 (human)): 99.5% | residual activity (PRKACG (human)): 99.8% | residual activity (AXL (human)): 103% | residual activity (STK39 (human)): 117% | residual activity (MAP3K5 (human)): 103% | residual activity (TEK (human)): 100% | residual activity (PRKCZ (human)): 98.3% | residual activity (EPHA7 (human)): 97.2% | residual activity (GRK5 (human)): 100% | residual activity (DYRK2 (human)): 91.8% | residual activity (EPHA1 (human)): 88.8% | residual activity (DAPK3 (human)): 88.5% | residual activity (DDR2 (human)): 89.9% | residual activity (PRKCD (human)): 88.8%

CNc1cc2c(Nc3cccc(Br)c3)ncnc2cn1
residual activity (NEK2 (human)): 88.3% | residual activity (CHEK2 (human)): 85.7% | residual activity (PRKCB2 (human)): 102% | residual activity (BMX (human)): 93.9% | residual activity (MYO3B (human)): 91.1% | residual activity (CSNK1G2 (human)): 95.8% | residual activity (MAP3K14 (human)): 126% | residual activity (ADRBK1 (human)): 97% | residual activity (DYRK3 (human)): 84.4% | residual activity (GRK7 (human)): 83.8% | residual activity (FRK (human)): 91.2% | residual activity (VRK1 (human)): 90.2% | residual activity (TXK (human)): 79.9% | residual activity (CAMKK1 (human)): 92.6% | residual activity (MAP4K2 (human)): 74.8% | residual activity (BTK (human)): 94.7% | residual activity (SRPK2 (human)): 89.4% | residual activity (PRKX (human)): 97.1% | residual activity (LTK (human)): 76.2% | residual activity (STK33 (human)): 95.2% | residual activity (INSRR (human)): 98.2% | residual activity (EGFR (human)): 1.99% | residual activity (MAP2K1 (human)): 74.6% | residual activity (CDK1 CCNB1 (human)): 104% | residual activity (PHKG1 (human)): 91.4% | residual activity (DYRK4 (human)): 87.5% | residual activity (MARK2 (human)): 90.9% | residual activity (SRPK3 (human)): 97.1% | residual activity (BRSK1 (human)): 91.2% | residual activity (PRKACG (human)): 115% | residual activity (AXL (human)): 98.6% | residual activity (STK39 (human)): 94% | residual activity (MAP3K5 (human)): 94.6% | residual activity (TEK (human)): 87.9% | residual activity (PRKCZ (human)): 98.6% | residual activity (EPHA7 (human)): 94.6% | residual activity (GRK5 (human)): 120% | residual activity (DYRK2 (human)): 89.9% | residual activity (EPHA1 (human)): 103% | residual activity (DAPK3 (human)): 90.9% | residual activity (DDR2 (human)): 100% | residual activity (PRKCD (human)): 94.7%
